3 compounds from PMC11078216, “Discovery of potent and selective activity-based probes (ABPs) for the deubiquitinating enzyme USP30” (RSC Chemical Biology, 2024) can be followed below.

SMILES strings stand for the structures.

Assay in all cases: ABPP chemical proteomics (LC-MS/MS) in HEK293T cells
Common to all, as to type: cell-based

One assay has as its target T1, ACTG1 (Homo sapiens, UniProt P63261).
T1 construct: endogenous in cells; host or cells: HEK293T
The conditions noted are these: compound 1 out-competition with IMP-2587 labelling, HEK293T (Table S3, Fig.5b). On the procedure:
(§1) To explore the selectivity of IMP-2587 and IMP-2586 across the whole proteome, we performed quantitative activity-based protein profiling (ABPP) in HEK293T cells following treatment with IMP-2587 or IMP-2586 (Fig. 3a). After ABP incubation, cells were lysed, and probe-labelled proteins were ligated to biotinylated capture reagents.[27] […] USP30 was outcompeted by corresponding parent inhibitors for each ABP (Fig. 5b and d and Tables S3 and S5, ESI ^†), confirming the high potency and rapid engagement of IMP-2587 and IMP-2586 in cells. […] DESI1 and DESI2 are small ubiquitin-related modifier (SUMO) proteases,[3,29–32] and IMP-2587 and IMP-2586 may offer a starting point for future development of DESI ABPs. […]
(§2) d) Live cell probe incubation, lysate click chemistry and precipitation 6-well HEK293T cells were incubated with media containing compounds ABP 2 and ABP 4 at indicated concentrations for 1 h at 37 °C. The cells were washed with PBS and lysed with lysis buffer (50 μL (1% (v/v) Triton X-100, 0.1% (w/v) sodium dodecyl sulfate (SDS), EDTA-free complete protease inhibitor cocktail (1×, Roche) in PBS on ice for 10 min. The lysates were scraped and transferred to corresponding Lo-Bind Eppendorfs. Each lysate was sonicated for 1 minute, and the samples centrifuges at 5,000 x g at 4 °C for 5 minutes to pellet insoluble cellular debris. The supernatant was collected, and protein concentration was determined using the DC Protein Assay (Bio-Rad) as per manufacturer’s instructions, and normalised to lowest concentrated sample (e.g. 1 mg/mL, using lysis buffer). The following “click mixture” was prepared separately, preparing 6 μL for every 100 μL of […]
(§3) Capture reagent (AzRB/AzT for ABP 2, YnT/YnB for ABP 4 10 mM in DMSO, 1 vol; final concentration […]
(§4) CuSO4 (50 mM in water, 2 vol; final concentration in reaction 1 mM)
(§5) TCEP (50 mM in water, 2 vol; final concentration in reaction 1 mM)
(§6) TBTA (10 mM in DMSO, 1 vol; final concentration in reaction 100 µM)
(§7) The click mixture was vortexed and incubated at room temperature for 2 min before 6 μL of the mixture was added to every 100 μL of lysate. The reaction mixtures were shaken at room temperature for 1 h before being quenched with EDTA (500 mM in H2O) to a final concentration of 10 mM.
(§8) Proteins were precipitated by adding H2O (1 vol), MeOH (2 vol) and CHCl3 (0.5 vol), vortexing briefly then centrifuging at 17,000 × g for 5 min. The top H2O/MeOH layer was discarded and the middle layer of protein pellet and lower CHCl3 layer retained. The suspension was washed with MeOH (300 μL), and sonicated to break up the pellet. The proteins were pelleted by centrifugation at 10,000–17000 × g for 5–10 min or until a compact pellet was formed. The protein pellet was washed once more with MeOH (1 mL). The pellet was resuspended by sonicating and completely dissolving in 1% (w/v) SDS in PBS (to 5 mg/mL protein) before being made up to 1 mg/mL protein with PBS.
(§9) The lysate samples (10-20 μg) were mixed with 4× Laemmli sample loading buffer (250 mM Tris -HCl pH 6.8, 30% (v/v) glycerol, 10% (w/v) SDS, 0.05% (w/v) bromophenol blue) supplemented with 20% v/v β-mercaptoethanol (BME) and boiled for 10 min at 95 °C. The resulting protein samples were separated according to the protocol in section 3.2.c. Gel were imaged on a Typhoon imager (GE Healthcare; λEx 532 nm, λEm 575 nm for TAMRA. For protein loading quantification, gels were stained with Coomassie blue staining solution overnight, rinsed with water and imaged on an ImageQuant™ LAS 4000 imager (GE Healthcare). f) Neutravidin biotin enrichment (Affinity pull-down)
(§10) Click chemistry and precipitation steps were carried out as described in section 3.2.d, on at least 400ug of protein per sample. The pellet was resuspended by sonicating and completely dissolving in 1% (w/v) SDS in HEPES 50 mM pH 8.0, before being made up to 1 mg/mL protein with HEPES 50 mM pH 8.0 to […]
(§11) achieve a final concentration of 0.2% SDS. 20uL of each samples was collected as TL (Total lysate) […]
(§12) samples. […]

The next assay deals with T2, IMPDH2 (Homo sapiens, UniProt P12268).
T2 construct: endogenous in cells; host or cells: HEK293T
As to conditions: compound 1 out-competition with IMP-2587 labelling, HEK293T (Table S3, Fig.5b). On the procedure: as §1, §2, §3, §4, §5, §6, §7, §8, §9, §10, §11, §12

The target of another assay is T3, GET4 (Homo sapiens, UniProt Q7L5D6).
T3 construct: endogenous in cells; host or cells: HEK293T
T3 sequence (Q7L5D6 whole entry): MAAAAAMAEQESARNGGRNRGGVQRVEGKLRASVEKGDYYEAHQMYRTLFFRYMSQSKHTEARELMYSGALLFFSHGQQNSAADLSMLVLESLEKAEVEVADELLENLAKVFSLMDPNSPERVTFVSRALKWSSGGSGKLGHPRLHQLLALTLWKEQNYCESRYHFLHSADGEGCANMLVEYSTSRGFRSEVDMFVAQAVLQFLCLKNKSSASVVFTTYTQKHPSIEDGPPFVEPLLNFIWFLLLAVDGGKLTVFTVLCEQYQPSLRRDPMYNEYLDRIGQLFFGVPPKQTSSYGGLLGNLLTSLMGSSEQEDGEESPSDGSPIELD
The conditions noted are these: IMP-2587 labelling vs DMSO, 30 nM, 10 min, HEK293T (Table S2, Fig.5a). On the procedure:
as §1, §2, §3, §4, §5, §6, §7, §8, §9, §10, §11, §12

In a further assay the target is T4, UCHL1 (Homo sapiens, UniProt P09936).
T4 sequence (P09936 1-223): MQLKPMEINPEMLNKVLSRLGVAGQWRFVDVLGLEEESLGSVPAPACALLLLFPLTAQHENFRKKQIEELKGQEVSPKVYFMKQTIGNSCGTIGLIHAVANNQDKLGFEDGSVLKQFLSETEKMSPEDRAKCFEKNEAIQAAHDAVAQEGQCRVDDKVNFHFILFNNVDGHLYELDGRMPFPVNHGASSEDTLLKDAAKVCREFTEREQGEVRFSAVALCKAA
On the set-up: endogenous in cells; host or cells: HEK293T. As to conditions: IMP-2587 labelling vs DMSO, 30 nM, 10 min, HEK293T (Table S2, Fig.5a). On the procedure: as §1
The lysate samples (10-20 μg) were mixed with 4× Laemmli sample loading buffer (250 mM Tris -HCl pH 6.8, 30% (v/v) glycerol, 10% (w/v) SDS, 0.05% (w/v) bromophenol blue) supplemented with 20% v/v β-mercaptoethanol (BME) and boiled for 10 min at 95 °C. […] Gel were imaged on a Typhoon imager (GE Healthcare; λEx 532 nm, λEm 575 nm for TAMRA. For protein loading quantification, gels were stained with Coomassie blue staining solution overnight, rinsed with water and imaged on an ImageQuant™ LAS 4000 imager (GE Healthcare). f) Neutravidin biotin enrichment (Affinity pull-down) […]

The target in a further assay is T5, ASAH1 (Homo sapiens, UniProt Q13510).
T5 construct: endogenous in cells; host or cells: HEK293T
T5 sequence (Q13510 22-395): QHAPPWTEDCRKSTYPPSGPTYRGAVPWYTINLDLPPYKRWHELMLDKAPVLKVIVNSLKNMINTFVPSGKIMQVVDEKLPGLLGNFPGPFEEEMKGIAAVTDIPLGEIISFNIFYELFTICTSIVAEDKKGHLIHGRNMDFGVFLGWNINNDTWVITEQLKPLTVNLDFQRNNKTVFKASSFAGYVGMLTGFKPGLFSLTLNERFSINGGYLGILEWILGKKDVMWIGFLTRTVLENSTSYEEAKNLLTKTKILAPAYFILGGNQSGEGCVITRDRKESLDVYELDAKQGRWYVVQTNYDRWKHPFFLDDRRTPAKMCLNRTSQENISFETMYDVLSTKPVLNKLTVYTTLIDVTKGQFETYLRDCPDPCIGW
As to conditions: IMP-2586 labelling vs DMSO, 30 nM, 10 min, HEK293T (Table S4, Fig.5c). On the procedure: as §1, §2, §3, §4, §5, §6, §7, §8, §9, §10, §11, §12

Another assay concerns CAV1. As to conditions: IMP-2586 labelling vs DMSO, 30 nM, 10 min, HEK293T (Table S4, Fig.5c). On the procedure: as §1, §2, §3, §4, §5, §6, §7, §8, §9, §10, §11, §12
A further assay has as its target T6, CFAP20 (Homo sapiens, UniProt Q9Y6A4).
T6 construct: endogenous in cells; host or cells: HEK293T
As to conditions: IMP-2586 labelling vs DMSO, 30 nM, 10 min, HEK293T (Table S4, Fig.5c). On the procedure: as §1, §2, §3, §4, §5, §6, §7, §8, §9, §10, §11, §12

Another assay has as its target T7, RPL23A (Homo sapiens, UniProt P62750).
T7 construct: endogenous in cells; host or cells: HEK293T
The conditions noted are these: IMP-2586 labelling vs DMSO, 30 nM, 10 min, HEK293T (Table S4, Fig.5c). On the procedure:
as §1, §2, §3, §4, §5, §6, §7, §8, §9, §10, §11, §12

The target of a further assay is T8, RPL27 (Homo sapiens, UniProt P61353).
T8 construct: endogenous in cells; host or cells: HEK293T
As to conditions: IMP-2586 labelling vs DMSO, 30 nM, 10 min, HEK293T (Table S4, Fig.5c). On the procedure:
as §1, §2, §3, §4, §5, §6, §7, §8, §9, §10, §11, §12

A further assay deals with T9, SFT2D3 (Homo sapiens, UniProt Q587I9).
T9 construct: endogenous in cells; host or cells: HEK293T
T9 sequence (Q587I9 whole entry): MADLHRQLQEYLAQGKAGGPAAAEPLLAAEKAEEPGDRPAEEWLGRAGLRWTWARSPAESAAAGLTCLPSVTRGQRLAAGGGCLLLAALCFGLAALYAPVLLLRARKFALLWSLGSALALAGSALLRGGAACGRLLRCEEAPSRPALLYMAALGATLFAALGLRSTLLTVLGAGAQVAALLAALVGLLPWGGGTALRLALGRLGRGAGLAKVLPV
As to conditions: IMP-2586 labelling vs DMSO, 30 nM, 10 min, HEK293T (Table S4, Fig.5c). On the procedure:
as §1, §2, §3, §4, §5, §6, §7, §8, §9, §10, §11, §12

A further assay addresses T10, SMARCA4 (Homo sapiens, UniProt P51532).
T10 construct: endogenous in cells; host or cells: HEK293T
The conditions noted are these: IMP-2586 labelling vs DMSO, 30 nM, 10 min, HEK293T (Table S4, Fig.5c). On the procedure:
as §1, §2, §3, §4, §5, §6, §7, §8, §9, §10, §11, §12

T6 sequence (Q9Y6A4 whole entry): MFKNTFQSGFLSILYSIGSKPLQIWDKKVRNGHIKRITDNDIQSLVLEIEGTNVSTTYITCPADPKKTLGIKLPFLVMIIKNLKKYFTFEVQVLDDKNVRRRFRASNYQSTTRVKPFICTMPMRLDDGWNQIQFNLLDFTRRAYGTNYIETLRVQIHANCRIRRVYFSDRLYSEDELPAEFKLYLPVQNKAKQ
T10 sequence (P51532 whole entry): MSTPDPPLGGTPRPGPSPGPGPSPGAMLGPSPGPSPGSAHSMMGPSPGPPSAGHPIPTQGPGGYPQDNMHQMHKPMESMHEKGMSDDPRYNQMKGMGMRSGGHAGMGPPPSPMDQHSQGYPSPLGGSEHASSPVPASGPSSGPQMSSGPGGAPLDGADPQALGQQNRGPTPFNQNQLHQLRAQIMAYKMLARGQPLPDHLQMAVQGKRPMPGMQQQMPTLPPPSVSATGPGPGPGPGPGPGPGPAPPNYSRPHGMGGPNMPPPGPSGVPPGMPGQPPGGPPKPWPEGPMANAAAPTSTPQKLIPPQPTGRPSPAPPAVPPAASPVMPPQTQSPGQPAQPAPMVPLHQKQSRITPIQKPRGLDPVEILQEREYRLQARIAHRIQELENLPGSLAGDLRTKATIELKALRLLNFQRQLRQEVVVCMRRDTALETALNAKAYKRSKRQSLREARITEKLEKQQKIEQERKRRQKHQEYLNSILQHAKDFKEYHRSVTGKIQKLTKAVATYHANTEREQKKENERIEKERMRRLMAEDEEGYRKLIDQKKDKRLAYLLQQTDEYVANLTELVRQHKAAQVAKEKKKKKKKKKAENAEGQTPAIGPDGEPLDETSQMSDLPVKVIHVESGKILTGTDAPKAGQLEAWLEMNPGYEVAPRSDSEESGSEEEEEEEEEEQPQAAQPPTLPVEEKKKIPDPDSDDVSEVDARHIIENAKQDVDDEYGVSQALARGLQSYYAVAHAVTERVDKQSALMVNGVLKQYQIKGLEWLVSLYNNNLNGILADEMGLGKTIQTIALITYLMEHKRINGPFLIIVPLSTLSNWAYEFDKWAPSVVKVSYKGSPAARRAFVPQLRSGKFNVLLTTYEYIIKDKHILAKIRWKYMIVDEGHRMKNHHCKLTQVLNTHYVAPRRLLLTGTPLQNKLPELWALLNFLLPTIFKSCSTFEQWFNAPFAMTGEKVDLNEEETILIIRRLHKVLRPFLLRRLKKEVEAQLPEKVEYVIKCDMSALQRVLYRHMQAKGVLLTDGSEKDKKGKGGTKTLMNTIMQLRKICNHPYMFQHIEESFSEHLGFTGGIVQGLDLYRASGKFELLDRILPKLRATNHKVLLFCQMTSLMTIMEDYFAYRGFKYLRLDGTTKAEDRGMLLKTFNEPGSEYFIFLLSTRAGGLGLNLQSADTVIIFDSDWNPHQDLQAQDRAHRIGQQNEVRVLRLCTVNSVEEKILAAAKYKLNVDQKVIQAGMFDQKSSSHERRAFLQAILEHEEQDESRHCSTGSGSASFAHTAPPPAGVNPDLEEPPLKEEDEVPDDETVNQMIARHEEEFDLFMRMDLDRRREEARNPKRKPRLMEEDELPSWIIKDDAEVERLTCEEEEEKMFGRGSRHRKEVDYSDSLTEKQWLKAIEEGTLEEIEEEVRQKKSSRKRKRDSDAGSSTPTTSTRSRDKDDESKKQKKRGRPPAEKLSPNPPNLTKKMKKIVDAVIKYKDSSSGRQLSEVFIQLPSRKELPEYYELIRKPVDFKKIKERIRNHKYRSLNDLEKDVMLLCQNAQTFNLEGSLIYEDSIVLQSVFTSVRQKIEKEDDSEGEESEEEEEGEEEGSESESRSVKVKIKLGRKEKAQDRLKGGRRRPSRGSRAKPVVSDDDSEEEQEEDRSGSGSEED

As to `N#CN1CC[C@H](CC(=O)Nc2cc(-c3cccc(Cl)c3)no2)C1` [compound 1, reference compound], the “Difference (log2 fold change of enrichment)” value is recorded as -0.57 at ACTG1 and -0.70 on IMPDH2.

As to `C#Cc1cccc(-c2cc(NC(=O)CC3CCN(C#N)C3)on2)c1` (stereo not drawn) [IMP-2587], the “Difference (log2 fold change of enrichment)” value on GET4 and at UCHL1 was 0.76 throughout.

With `N#CN1CC[C@@H](NC(=O)c2cc(-c3ccccc3Oc3ccc(N=[N+]=[N-])cc3)n[nH]2)C1` [IMP-2586], the “Difference (log2 fold change of enrichment)” value was 1.08 on ASAH1; -2.47 in the assay on CAV1 (CAV1 (Caveolin)); -1.61 in the assay with CAV1 (CAV1 (Caveolin-1)); -0.41 at CFAP20; -0.57 at RPL23A; -0.76 on RPL27. Besides, the “Difference (log2 fold change of enrichment)” value on SFT2D3 is recorded as -1.51; on SMARCA4, 0.52.
